Test results: patent publication US4025622A, “Novel sugar ureide and thioureide derivatives” (Ogura; Haruo, priority 1974, dated 1977)
Values after ≈ are worked out from the molar mass of the structure shown.

How the values were obtained:
[1] = test system: Escherichia coli IAM-1264; assay: Minimum inhibitory concentration, standard serial dilution method; assay type: cell-based; conditions: 37° C.; for MIC: Escherichia coli, IAM1264, 24 h, inoculum size 1.9×10^5, Brain heart infusion broth
Protocol: (§1) The minimum inhibitory concentration (mcg/ml) of a variety of the sugar ureide and thioureide derivatives according to this invention against various bacteria was determined in accordance with a standard serial dilution method using as medium Brain heart infusion broth (Difco) at 37° C. the determination being made after 24 hours incubation. The results are shown in Table 1 together with the results of test for ampicillin as reference.

Klebsiella pneumoniae = assay: as above; assay type: cell-based; conditions: 37° C.; for MIC: Klebsiella pneumoniae, 24 h, inoculum size 1.3×10^5, Brain heart infusion broth
Protocol: as §1

Proteus vulgaris OX 19 = assay: as above; assay type: cell-based; conditions: 37° C.; for MIC: Proteus vulgaris, OX19, 24 h, inoculum size 1.2×10^5, Brain heart infusion broth; for MIC Proteus vulgaris OX 19: inoculum size 1.2×10^5, Brain heart infusion broth, 24 hours
Protocol: as §1

[2] = test system: Pseudomonas aeruginosa IAM-1007; assay: as above; assay type: cell-based; conditions: 37° C.; for MIC: Pseudomonas aeruginosa, IAM1007, 24 h, inoculum size 1.3×10^5, Brain heart infusion broth
Protocol: as §1

Salmonella typhi O-901-W = assay: as above; assay type: cell-based; conditions: 37° C.; for MIC: Salmonella enterica, TYPHI, 24 h, inoculum size 3.5×10^5, Brain heart infusion broth; for MIC Salmonella typhi O-901-W: inoculum size 3.5×10^5, Brain heart infusion broth, 24 hours
Protocol: as §1

[3] = test system: Staphylococcus aureus 209 P; assay: as above; assay type: cell-based; conditions: inoculum size 3.8×10^5, Brain heart infusion broth, 37° C., 24 hours; for MIC: Staphylococcus aureus, 209P
Protocol: as §1

[4] = test system: Staphylococcus aureus No. 26; assay: as above; assay type: cell-based; conditions: 37° C.; for MIC: Staphylococcus aureus, NO.26, 24 h, inoculum size 2.3×10^5, Brain heart infusion broth
Protocol: as §1

mice = assay: LDo value for mice by oral administration; assay type: in vivo
[5] = inoculum size 1.3×10^5, Brain heart infusion broth, 24 hours

Row | SMILES | MIC [1] | MIC (Klebsiella pneumoniae) | MIC (Proteus vulgaris OX 19) | MIC [2] | MIC (Salmonella typhi O-901-W) | MIC [3] | MIC [4] | LDo (mice) | MIC Proteus vulgaris OX 19 (Proteus vulgaris OX 19) | MIC Salmonella typhi O-901-W (Salmonella typhi O-901-W) | MIC Escherichia coli IAM-1264 ([1]; inoculum size 1.9×10^5, Brain heart infusion broth, 24 hours) | MIC Klebsiella pneumoniae (Klebsiella pneumoniae; [5]) | MIC Pseudomonas aeruginosa IAM-1007 [2, 5] | MIC Staphylococcus aureus 209 P [3] | MIC Staphylococcus aureus No. 26 ([4]; inoculum size 2.3×10^5, Brain heart infusion broth, 24 hours)
1 | CC1(C)S[C@@H]2[C@H](NC(=O)[C@H](N)c3ccccc3)C(=O)N2[C@H]1C(=O)O [Ampicillin, α-aminobenzylpenicillin, reference compound] | 3.12 µg/mL (≈ 8.93 µM) | 1.56 µg/mL (≈ 4.46 µM) | 100 µg/mL (≈ 286 µM) | > 100 µg/mL | 0.39 µg/mL (≈ 1.12 µM) | 0.1 µg/mL (≈ 0.286 µM) | > 100 µg/mL | > 1000 mg/kg |  |  |  |  |  |  | 
2 | CC(=O)O[C@H]1[C@H](OC(C)=O)[C@@H](NC(=S)N[C@@H](C(=O)N[C@@H]2C(=O)N3[C@@H]2SC(C)(C)[C@@H]3C(=O)O)c2ccccc2)OC[C@H]1OC(C)=O [Example 10, Triethylammonium α-(2,3,4,-tri-O-acetyl-α-D-arabinopyranosylthioureido) benzylpenicillinate] | 50 µg/mL | 50 µg/mL |  | 200 µg/mL |  | 3.12 µg/mL | 100 µg/mL | > 1000 mg/kg | > 100 µg/mL | 6.25 µg/mL |  |  |  |  | 
3 | CC(=O)O[C@H]1[C@H](OC(C)=O)[C@@H](NC(=S)N[C@@H](C(=O)N[C@@H]2C(=O)N3[C@@H]2SC(C)(C)[C@@H]3C(=O)O)c2ccccc2)OC[C@H]1OC(C)=O [Example 13, α-(2,3,4-Tri-O-acetyl-α-D-arabinopyranosylthioureido) benzylpenicillin] |  |  |  |  |  |  |  |  | 25 µg/mL (≈ 37.5 µM) | > 100 µg/mL | > 100 µg/mL | > 100 µg/mL | > 100 µg/mL | 3.12 µg/mL (≈ 4.68 µM) | > 100 µg/mL
4 | CC(=O)OC[C@@H](OC(C)=O)[C@@H](OC(C)=O)[C@H](OC(C)=O)[C@@H](OC(C)=O)C(=O)NC(=S)N[C@@H](C(=O)N[C@@H]1C(=O)N2[C@@H]1SC(C)(C)[C@@H]2C(=O)O)c1ccccc1 [Example 17, α-(2,3,4,5,6-Penta-O-acetyl-D-gluconyl-thioureido) benzylpenicillin] | > 100 µg/mL | > 100 µg/mL | 1.56 µg/mL (≈ 1.96 µM) | > 100 µg/mL | 50 µg/mL (≈ 62.7 µM) | 0.78 µg/mL (≈ 0.979 µM) | > 100 µg/mL | > 1000 mg/kg |  |  |  |  |  |  | 
5 | CC(=O)OC[C@@H](OC(C)=O)[C@@H](OC(C)=O)[C@H](OC(C)=O)[C@@H](OC(C)=O)C(=O)NC(=S)N[C@@H](C(=O)N[C@@H]1C(=O)N2C(C(=O)O)=C(C)CS[C@H]12)c1ccccc1 [Example 28, 7-[D-α-(2,3,4,5,6-penta-O-acetyl-D-gluconylthioureido)-phenylacetamido] -3-methyl-3-cephem-4-carboxylic acid] | > 100 µg/mL | > 100 µg/mL | 100 µg/mL (≈ 126 µM) | > 100 µg/mL | > 100 µg/mL | 12.5 µg/mL (≈ 15.7 µM) |  | > 1000 mg/kg |  |  |  |  |  |  | 
